SMILES strings stand for the structures. Entries after “also recorded” stand apart in the source; their conditions may differ.

The test has as its target T1, human PEG10 (Homo sapiens, UniProt Q86TG7).
T1 construct: expressed in transfected cells; host or cells: HEK293
T1 sequence (Q86TG7 1-708): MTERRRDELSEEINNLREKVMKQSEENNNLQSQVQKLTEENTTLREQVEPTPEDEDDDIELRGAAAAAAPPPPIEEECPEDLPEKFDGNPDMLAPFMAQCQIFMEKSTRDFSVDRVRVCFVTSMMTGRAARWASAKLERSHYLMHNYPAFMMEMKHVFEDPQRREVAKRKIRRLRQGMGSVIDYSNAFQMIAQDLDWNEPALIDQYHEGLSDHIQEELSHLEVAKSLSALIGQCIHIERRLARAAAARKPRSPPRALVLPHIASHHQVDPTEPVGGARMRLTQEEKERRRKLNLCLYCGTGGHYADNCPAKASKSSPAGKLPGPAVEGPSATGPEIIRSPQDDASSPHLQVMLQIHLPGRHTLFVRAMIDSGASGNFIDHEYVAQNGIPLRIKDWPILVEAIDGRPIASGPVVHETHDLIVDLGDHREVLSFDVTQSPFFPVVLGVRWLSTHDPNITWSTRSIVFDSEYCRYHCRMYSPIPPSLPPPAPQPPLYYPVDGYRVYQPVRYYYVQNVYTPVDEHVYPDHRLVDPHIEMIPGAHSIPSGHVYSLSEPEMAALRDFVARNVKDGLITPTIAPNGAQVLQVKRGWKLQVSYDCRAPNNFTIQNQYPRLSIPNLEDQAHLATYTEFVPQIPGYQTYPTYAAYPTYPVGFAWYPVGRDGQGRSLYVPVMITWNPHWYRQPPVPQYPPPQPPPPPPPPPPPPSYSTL
As to the kind of experiment: Western blot of PEG10 abundance and self-cleavage in HEK293 cells transfected with human PEG10. The format is cell-based. The following applies: HEK293 cells transfected with WT human PEG10, incubated 24 hours with increasing concentrations of drug (up to 50 uM), compared to untreated. The procedure: FIG. 1: Western blot of PEG10 self-cleavage testing with antiretroviral compounds. HEK293 cells were transfected with either WT or a cleavage-incompetent mutant form of human PEG10 and incubated for 24 hours with the indicated concentrations of drug. After 24 hours, cells were lysed and imaged by western blot.
FIG. 2A-D: PEG10 abundance is decreased by ritonavir, but not indinavir. a-d) Bands identified in FIG. 1 were quantified and normalized to Tubulin for a) gag-pol, b) gag, c) CA fragment, and d) CA^NTD fragment. Shown is mean+/−SEM for four representative experiments; one sample from untreated indinavir and 50 uM of indinavir and ritonavir were not collected. Statistics were measured by One-way ANOVA with multiple comparisons to untreated; statistically significant comparisons are shown with asterisks. ANOVA summary significance is shown with straight line.
Shown is mean+/−SEM for four representative experiments; one sample from untreated indinavir and 50 uM of indinavir and ritonavir were not collected. Statistics were measured by One-way ANOVA with multiple comparisons to untreated; statistically significant comparisons are shown with asterisks. ANOVA summary significance is shown with straight line.
Applicants performed an assay using western blot to assess self-cleavage of transfected PEG10 (FIG. 1) with a negative control where the PEG10 protease is mutated. […]
In general terms: Immunoblotting shows a protein as a band on a membrane.

In the case of `CC(C)c1nc(CN(C)C(=O)N[C@H](C(=O)N[C@@H](Cc2ccccc2)C[C@H](O)[C@H](Cc2ccccc2)NC(=O)OCc2cncs2)C(C)C)cs1` [ritonavir], the “PEG10 abundance (expression in the cell; bands normalized to Tubulin: gag-pol, gag, CA fragment, CA NTD fragment)” value is on record as “decreased; also recorded: uniquely decreases PEG10 expression” and the “Self-cleavage of PEG10 (ratios gag-pol to gag, CA fragment to gag, CA NTD fragment to gag)” value is given as “modestly affected; also recorded: modest effect”.

(Values after patent US20250114336A1, “USE OF ANTI-RETROVIRAL PROTEASE INHIBITORS FOR THE TREATMENT OF AMYOTROPHIC LATERAL SCLEROSIS (ALS)” (The Regents of the University of Colorado, a body corporate, priority 2023, published 2025).)
